Results from US20120244567A1, “HUMAN EMBRYONIC STEM CELLS FOR HIGH THROUGHOUT DRUG SCREENING” (BUCK INSTITUTE FOR RESEARCH ON AGING, priority 2009, published 2012).
Counter-ions that a name gives are not always drawn. Like-named read-outs stand apart in the source and are kept apart here.

Experiments:
[1] = system: hESCs and hESC-derived NSCs; assay: Comparative ATP screening on hESCs and hESC-derived NSCs (ratio ESC/NSC or NSC/ESC); design: hit class in primary screen / ESC/NSC: dose or concentration left out as unconfirmed; conditions: NINDS primary screen, ATP relative to DMSO controls
Description: Hits were defined based on the ability of a compound to affect ATP levels relative to DMSO controls on each plate.

2102Ep cells = assay: Effect on immortal cell line 2102Ep; type: cell-based, human; conditions: 48 hours after treatment, data not shown
Description: Media was changed every day and cells were passaged every 3-4 days at a ratio of between 1:4 to 1:6.

NSCs = system: NSCs
Procedure: RNAs isolated from NSCs and neurons with and without drug treatments were hybridized to Illumina HumanRef-8 BeadChip (Illumina, Inc., San Diego, Calif., performed by Microarray core facility at the Burnham Institute for Medical Research). The Illumina array data were normalized by the quantile method, and then transformed log 2 ratio values for a zero mean for expression values of each gene across all samples. The statistical and bioinformatics analyses were conducted by using R and the bioconductor package (www.bioconductor.org). The gene set enrichment analysis was conducted using the GSEA software (www.broad.mit.edu/gsea).

[2] = Amiloride sensitive Na channels, 4 hours of exposure
[3] = Amine transporters, 4 hours of exposure
[4] = Ca activated K channels, 4 hours of exposure
[5] = Calcium channels, 4 hours of exposure
[6] = Cl channels, 4 hours of exposure
[7] = Delayed rectifier K channels, 4 hours of exposure
[8] = H ion transporters, 4 hours of exposure
[9] = Rectifier K channels, 4 hours of exposure
[10] = Voltage gated Na channels, 4 hours of exposure

SMILES: CCCCc1oc2ccccc2c1C(=O)c1cc(I)c(OCCN(CC)CC)c(I)c1 [Amiodarone Hydrochloride]
- hit class in primary screen [1]: NSC Killers
- effect on 2102Ep cells (2102Ep cells): no effect
- ERG expression, Treated NSC (NSCs): 32.9
- ACCN1 gene expression, Treated NSC (NSCs; [2]): 16.5
- ACCN2 gene expression, Treated NSC (NSCs; [2]): 185.7
- ACCN3 gene expression, Treated NSC (NSCs; [2]): 11
- SLC1A2 gene expression, Treated NSC (NSCs; [3]): 15.7
- SLC1A3 gene expression, Treated NSC (NSCs; [3]): 552.1
- SLC6A3 gene expression, Treated NSC (NSCs; [3]): 21.2
- SLC6A9 gene expression, Treated NSC (NSCs; [3]): 329.2
- SLC6A12 gene expression, Treated NSC (NSCs; [3]): 9.6
- KCNMB1 gene expression, Treated NSC (NSCs; [4]): 62.9
- KCNN1 gene expression, Treated NSC (NSCs; [4]): 6.5
- KCNN2 gene expression, Treated NSC (NSCs; [4]): 15.8
- KCNN3 gene expression, Treated NSC (NSCs; [4]): 0.7
- CACNA1A gene expression, Treated NSC (NSCs; [5]): 2
- CACNA1C gene expression, Treated NSC (NSCs; [5]): 25.9
- CACNB2 gene expression, Treated NSC (NSCs; [5]): 7.8
- CACNG2 gene expression, Treated NSC (NSCs; [5]): 2.5
- CLCN2 gene expression, Treated NSC (NSCs; [6]): 41.6
- CLCN3 gene expression, Treated NSC (NSCs; [6]): 566.5
- CLCN6 gene expression, Treated NSC (NSCs; [6]): 349.8
- CLCN7 gene expression, Treated NSC (NSCs; [6]): 1305.5
- CLIC1 gene expression, Treated NSC (NSCs; [6]): 122.2
- KCNA5 gene expression, Treated NSC (NSCs; [7]): 24.2
- KCNB1 gene expression, Treated NSC (NSCs; [7]): 32.8
- KCNB2 gene expression, Treated NSC (NSCs; [7]): 25
- ATP5B gene expression, Treated NSC (NSCs; [8]): 7030.3
- ATP6V0A2 gene expression, Treated NSC (NSCs; [8]): 190.2
- ATP6V0D1 gene expression, Treated NSC (NSCs; [8]): 3355
- ATP6V1A gene expression, Treated NSC (NSCs; [8]): 1155.9
- ATP6V1B2 gene expression, Treated NSC (NSCs; [8]): 385.4
- SLC2A1 gene expression, Treated NSC (NSCs; [8]): 1274.8
- SLC2A11 gene expression, Treated NSC (NSCs; [8]): 22.8
- SLC35B1 gene expression, Treated NSC (NSCs; [8]): 1769.8
- expression of Fos, FosB and DDIT3 (NSCs; NSCs, four hours after exposure): significantly up regulated
- KCNC4 gene expression, Treated NSC (NSCs; [9]): 4.5
- KCND2 gene expression, Treated NSC (NSCs; [9]): 2.3
- KCNF1 gene expression, Treated NSC (NSCs; [9]): 189.2
- KCNG1 gene expression, Treated NSC (NSCs; [9]): 150.4
- KCNJ4 gene expression, Treated NSC (NSCs; [9]): 15.9
- KCNJ6 gene expression, Treated NSC (NSCs; [9]): 317.3
- KCNJ11 gene expression, Treated NSC (NSCs; [9]): 13.5
- KCNQ3 gene expression, Treated NSC (NSCs; [9]): 3.4
- KCNQ2 gene expression, Treated NSC (NSCs; Rectifier K channels, first line for this gene, 4 hours of exposure): 138.1
- KCNQ2 gene expression, Treated NSC (NSCs; Rectifier K channels, second line for this gene, 4 hours of exposure): 919.6
- SCN1A gene expression, Treated NSC (NSCs; [10]): 20.5
- SCN3A gene expression, Treated NSC (NSCs; [10]): 5.7
- SCN9A gene expression, Treated NSC (NSCs; [10]): 1.9
- expression of KLF 10 (intrinsic mitochondrial apoptotic pathway) (NSCs; differentiated cells, treated versus untreated cells): not altered
- AFF1 expression, Treated NSC (NSCs; four hours after exposure): 50.8
- ARID3A expression, Treated NSC (NSCs; four hours after exposure): 2200
- ASCL2 expression, Treated NSC (NSCs; four hours after exposure): 36
- CREBL1 expression, Treated NSC (NSCs; four hours after exposure): 32.2
- DDIT3 expression, Treated NSC (NSCs; four hours after exposure): 2270
- DLX1 expression, Treated NSC (NSCs; four hours after exposure): 1550
- DLX2 expression, Treated NSC (NSCs; four hours after exposure): 54.3
- E2F2 expression, Treated NSC (NSCs; four hours after exposure): 635
- E2F7 expression, Treated NSC (NSCs; four hours after exposure): 711
- E2F8 expression, Treated NSC (NSCs; four hours after exposure): 82.7
- EGR1 expression, Treated NSC (NSCs; four hours after exposure): 3100
- EGR2 expression, Treated NSC (NSCs; four hours after exposure): 155
- ELF4 expression, Treated NSC (NSCs; four hours after exposure): 103
- ELF5 expression, Treated NSC (NSCs; four hours after exposure): 30.8
- ELK3 expression, Treated NSC (NSCs; four hours after exposure): 89.9
- ELK4 expression, Treated NSC (NSCs; four hours after exposure): 39.3
- EN1 expression, Treated NSC (NSCs; four hours after exposure): 48.7
- ETS1 expression, Treated NSC (NSCs; four hours after exposure): 952
- ETV1 expression, Treated NSC (NSCs; four hours after exposure): 34.4
- ETV4 expression, Treated NSC (NSCs; four hours after exposure): 672
- FOS expression, Treated NSC (NSCs; four hours after exposure): 1160
- FOSB expression, Treated NSC (NSCs; four hours after exposure): 174
- FOXA2 expression, Treated NSC (NSCs; four hours after exposure): 36.8
- FOXD1 expression, Treated NSC (NSCs; four hours after exposure): 79.7
- FOXF2 expression, Treated NSC (NSCs; four hours after exposure): 39.3
- FOXL2 expression, Treated NSC (NSCs; four hours after exposure): 120
- FOXM1 expression, Treated NSC (NSCs; four hours after exposure): 287
- GATA2 expression, Treated NSC (NSCs; four hours after exposure): 46.2
- GLI2 expression, Treated NSC (NSCs; four hours after exposure): 227
- HCLS1 expression, Treated NSC (NSCs; four hours after exposure): 40
- HEY2 expression, Treated NSC (NSCs; four hours after exposure): 37.9
- HIRA expression, Treated NSC (NSCs; four hours after exposure): 31.5
- HMGB2 expression, Treated NSC (NSCs; four hours after exposure): 2170
- HOXA2 expression, Treated NSC (NSCs; four hours after exposure): 770
- HOXA13 expression, Treated NSC (NSCs; four hours after exposure): 33.2
- HOXB1 expression, Treated NSC (NSCs; four hours after exposure): 30.6
- HOXB2 expression, Treated NSC (NSCs; four hours after exposure): 1100
- HOXB3 expression, Treated NSC (NSCs; four hours after exposure): 186
- HOXB4 expression, Treated NSC (NSCs; four hours after exposure): 198
- HOXB5 expression, Treated NSC (NSCs; four hours after exposure): 49.9
- HOXD3 expression, Treated NSC (NSCs; four hours after exposure): 70.2
- IRF1 expression, Treated NSC (NSCs; four hours after exposure): 38.9
- KLF10 expression, Treated NSC (NSCs; four hours after exposure): 38.1
- L3MBTL expression, Treated NSC (NSCs; four hours after exposure): 27.5
- LHX8 expression, Treated NSC (NSCs; four hours after exposure): 42.9
- MEF2C expression, Treated NSC (NSCs; four hours after exposure): 33.1
- MEOX1 expression, Treated NSC (NSCs; four hours after exposure): 178
- MSX2 expression, Treated NSC (NSCs; four hours after exposure): 41.9
- MYEF2 expression, Treated NSC (NSCs; four hours after exposure): 30.6
- NFATC3 expression, Treated NSC (NSCs; four hours after exposure): 32.4
- NFATC4 expression, Treated NSC (NSCs; four hours after exposure): 32.8
- NFKB2 expression, Treated NSC (NSCs; four hours after exposure): 68
- NR1D2 expression, Treated NSC (NSCs; four hours after exposure): 44.9
- NR2C2 expression, Treated NSC (NSCs; four hours after exposure): 65.3
- NR4A2 expression, Treated NSC (NSCs; four hours after exposure): 30.4
- NRK expression, Treated NSC (NSCs; four hours after exposure): 43.8
- PAX8 expression, Treated NSC (NSCs; four hours after exposure): 98.9
- PBX2 expression, Treated NSC (NSCs; four hours after exposure): 70.8
- PRDM1 expression, Treated NSC (NSCs; four hours after exposure): 94.7
- PRRX2 expression, Treated NSC (NSCs; four hours after exposure): 67.5
- RELB expression, Treated NSC (NSCs; four hours after exposure): 53.6
- RUNX1 expression, Treated NSC (NSCs; four hours after exposure): 43.3
- SALL1 expression, Treated NSC (NSCs; four hours after exposure): 80.9
- SIX4 expression, Treated NSC (NSCs; four hours after exposure): 185
- STAT6 expression, Treated NSC (NSCs; four hours after exposure): 55.8
- TAF5L expression, Treated NSC (NSCs; four hours after exposure): 77.4
- TAF13 expression, Treated NSC (NSCs; four hours after exposure): 35.2
- TBX2 expression, Treated NSC (NSCs; four hours after exposure): 46.9
- TEAD3 expression, Treated NSC (NSCs; four hours after exposure): 87
- TEAD4 expression, Treated NSC (NSCs; four hours after exposure): 235
- TEF expression, Treated NSC (NSCs; four hours after exposure): 32.4
- TGIF1 expression, Treated NSC (NSCs; four hours after exposure): 117
- TP53 expression, Treated NSC (NSCs; four hours after exposure): 267
- ZNF85 expression, Treated NSC (NSCs; four hours after exposure): 93.8
- ZNF197 expression, Treated NSC (NSCs; four hours after exposure): 32.8
- ZNF274 expression, Treated NSC (NSCs; four hours after exposure): 37.8
- ZNF367 expression, Treated NSC (NSCs; four hours after exposure): 30.9
- ZSCAN29 expression, Treated NSC (NSCs; four hours after exposure): 47.6
